± gives the expanded uncertainty stated by the source. One block for each compound: values may come before it.
Test: activity coefficient (dimensionless); of the first substance listed, at infinite dilution; xn = mol fraction of the nth substance listed
Details: Liquid, x1 = 0
[1] = 368.15 K, Differential ebulliometry
[2] = 378.15 K, Differential ebulliometry
[3] = 388.15 K, Differential ebulliometry
[4] = 398.15 K, Differential ebulliometry
[5] = 409.15 K, Differential ebulliometry
[6] = 343.15 K, Differential ebulliometry

Structure (SMILES): CCCCCCO [hexan-1-ol] + CCc1ccccc1
activity coefficient [1]: 3.25 ± 0.06
activity coefficient [2]: 2.95 ± 0.18
activity coefficient [3]: 2.62 ± 0.06
activity coefficient [4]: 2.43 ± 0.1
activity coefficient [5]: 2.11 ± 0.04

Structure (SMILES): CCc1ccccc1 [ethylbenzene] + CCCO
activity coefficient [6]: 4.48 ± 0.08
activity coefficient (353.15 K, Differential ebulliometry): 4.21 ± 0.08
activity coefficient (363.15 K, Differential ebulliometry): 3.98 ± 0.08
activity coefficient (370.15 K, Differential ebulliometry): 3.8 ± 0.08

Structure (SMILES): CCc1ccccc1 [ethylbenzene] + CCCCCO
activity coefficient (323.15 K, Chromatography): 3.37 ± 0.12

Structure (SMILES): CCc1ccccc1 [ethylbenzene] + CCCCO
activity coefficient (323.15 K, Chromatography): 3.84 ± 0.15

Structure (SMILES): CCCO [propan-1-ol] + CCc1ccccc1
activity coefficient (293.15 K, Chromatography): 15.8 ± 0.8
activity coefficient (303.15 K, Chromatography): 12.9 ± 0.7
activity coefficient (313.15 K, Chromatography): 10.3 ± 0.7
activity coefficient (323.15 K, Chromatography): 8.7 ± 0.44

Structure (SMILES): CO [methanol] + CCc1ccccc1
activity coefficient (293.15 K, Chromatography): 26.2 ± 1.3
activity coefficient (303.15 K, Chromatography): 21.4 ± 1.1
activity coefficient (313.15 K, Chromatography): 18 ± 1
activity coefficient (323.15 K, Chromatography): 15 ± 0.8

Structure (SMILES): CCO [ethanol] + CCc1ccccc1
activity coefficient (293.15 K, Chromatography): 20.1 ± 0.8
activity coefficient (303.15 K, Chromatography): 16.2 ± 0.7
activity coefficient (313.15 K, Chromatography): 13.7 ± 0.7
activity coefficient (323.15 K, Chromatography): 11.2 ± 0.4

The next lines start with the values.

activity coefficient (308.15 K, Differential ebulliometry): 12.8 ± 0.2
activity coefficient (318.15 K, Differential ebulliometry): 12.2 ± 0.2
activity coefficient (328.15 K, Differential ebulliometry): 11.8 ± 0.2
activity coefficient (337.15 K, Differential ebulliometry): 11.4 ± 0.2
Structure (SMILES): CCc1ccccc1 [ethylbenzene] + CO

activity coefficient [1]: 3.62 ± 0.08
activity coefficient [2]: 3.19 ± 0.06
activity coefficient [3]: 2.89 ± 0.06
activity coefficient [4]: 2.57 ± 0.06
activity coefficient [5]: 2.29 ± 0.06
Structure (SMILES): CCCCCO [pentan-1-ol] + CCc1ccccc1

activity coefficient (303.15 K, Chromatography): 11.8 ± 0.6
activity coefficient (313.15 K, Chromatography): 9.49 ± 0.5
activity coefficient (323.15 K, Chromatography): 7.63 ± 0.39
activity coefficient [4]: 2.55 ± 0.26
activity coefficient [5]: 2.24 ± 0.14
Structure (SMILES): CCCCO [butan-1-ol] + CCc1ccccc1

activity coefficient (323.15 K, Chromatography): 2.77 ± 0.11
Structure (SMILES): CCc1ccccc1 [ethylbenzene] + CCCCCCO

activity coefficient (323.15 K, Differential ebulliometry): 6.86 ± 0.14
activity coefficient (333.15 K, Differential ebulliometry): 6.53 ± 0.14
activity coefficient [6]: 6.19 ± 0.12
activity coefficient (351.15 K, Differential ebulliometry): 5.9 ± 0.12
Structure (SMILES): CCc1ccccc1 [ethylbenzene] + CCO
